Results: ChEMBL document CHEMBL1150976, “The selectivity of protein kinase inhibitors: a further update” (Biochem J, 2007)

Assays:
[1] = biological target: Ribosomal protein S6 kinase alpha-5 (Homo sapiens) (UniProt O75582); assay: Percentage MSK1 activity remaining in the presence of 3uM inhibitor
[2] = biological target: T1, Serine/threonine-protein kinase D1 (Homo sapiens) (UniProt Q15139); assay: Percentage PKD1 activity remaining in the presence of 3uM inhibitor
T1 sequence (whole entry): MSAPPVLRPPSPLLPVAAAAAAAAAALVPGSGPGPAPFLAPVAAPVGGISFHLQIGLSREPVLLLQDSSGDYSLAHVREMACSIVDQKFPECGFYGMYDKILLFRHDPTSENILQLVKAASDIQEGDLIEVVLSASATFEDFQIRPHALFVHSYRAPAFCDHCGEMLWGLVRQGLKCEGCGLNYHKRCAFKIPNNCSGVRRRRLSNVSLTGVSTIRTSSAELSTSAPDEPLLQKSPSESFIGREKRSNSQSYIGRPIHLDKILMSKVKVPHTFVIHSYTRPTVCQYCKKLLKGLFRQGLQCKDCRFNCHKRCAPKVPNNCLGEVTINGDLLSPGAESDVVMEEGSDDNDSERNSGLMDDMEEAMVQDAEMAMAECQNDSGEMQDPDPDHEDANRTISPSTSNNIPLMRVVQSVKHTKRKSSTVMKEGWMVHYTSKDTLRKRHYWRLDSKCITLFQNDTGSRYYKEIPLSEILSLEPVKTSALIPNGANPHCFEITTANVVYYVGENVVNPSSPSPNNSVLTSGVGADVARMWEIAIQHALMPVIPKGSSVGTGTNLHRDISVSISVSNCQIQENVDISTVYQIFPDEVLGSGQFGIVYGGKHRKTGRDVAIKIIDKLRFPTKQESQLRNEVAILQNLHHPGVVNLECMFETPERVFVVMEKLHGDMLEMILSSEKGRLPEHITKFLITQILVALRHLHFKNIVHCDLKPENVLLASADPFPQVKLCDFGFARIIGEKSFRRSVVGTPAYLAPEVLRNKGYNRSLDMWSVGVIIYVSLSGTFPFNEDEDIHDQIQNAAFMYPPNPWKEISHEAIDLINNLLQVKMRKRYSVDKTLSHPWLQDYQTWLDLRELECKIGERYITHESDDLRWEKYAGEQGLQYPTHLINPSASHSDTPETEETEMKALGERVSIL

[3] = biological target: T2, Serine/threonine-protein kinase pim-1 (Homo sapiens, UniProt P11309); assay: Percentage PIM1 activity remaining in the presence of 3uM inhibitor
[4] = biological target: T3, MAP kinase-activated protein kinase 5 (Homo sapiens) (UniProt Q8IW41); assay: Percentage PRAK activity remaining in the presence of 3uM inhibitor
T3 sequence (whole entry): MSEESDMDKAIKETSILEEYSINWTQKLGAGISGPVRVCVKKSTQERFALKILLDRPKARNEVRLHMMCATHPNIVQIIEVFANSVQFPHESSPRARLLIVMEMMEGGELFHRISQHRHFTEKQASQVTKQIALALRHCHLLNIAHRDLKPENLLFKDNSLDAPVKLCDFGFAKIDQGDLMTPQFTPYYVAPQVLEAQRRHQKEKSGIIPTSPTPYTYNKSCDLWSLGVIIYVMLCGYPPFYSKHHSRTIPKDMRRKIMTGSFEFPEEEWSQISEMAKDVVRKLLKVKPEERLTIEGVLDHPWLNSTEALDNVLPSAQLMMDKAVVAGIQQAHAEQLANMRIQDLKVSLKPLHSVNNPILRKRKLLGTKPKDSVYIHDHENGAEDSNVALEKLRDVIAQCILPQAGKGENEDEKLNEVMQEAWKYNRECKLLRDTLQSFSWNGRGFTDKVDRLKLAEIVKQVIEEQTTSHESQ

[5] = biological target: Glycogen synthase kinase-3 beta (Homo sapiens, UniProt P49841); assay: Percentage GSK3-beta activity remaining in the presence of 3uM inhibitor
[6] = biological target: T4, Inhibitor of nuclear factor kappa-B kinase subunit epsilon (Homo sapiens) (UniProt Q14164); assay: Percentage IKKepsilon activity remaining in the presence of 0.1uM inhibitor; conditions: filed as antagonist
T4 sequence (whole entry): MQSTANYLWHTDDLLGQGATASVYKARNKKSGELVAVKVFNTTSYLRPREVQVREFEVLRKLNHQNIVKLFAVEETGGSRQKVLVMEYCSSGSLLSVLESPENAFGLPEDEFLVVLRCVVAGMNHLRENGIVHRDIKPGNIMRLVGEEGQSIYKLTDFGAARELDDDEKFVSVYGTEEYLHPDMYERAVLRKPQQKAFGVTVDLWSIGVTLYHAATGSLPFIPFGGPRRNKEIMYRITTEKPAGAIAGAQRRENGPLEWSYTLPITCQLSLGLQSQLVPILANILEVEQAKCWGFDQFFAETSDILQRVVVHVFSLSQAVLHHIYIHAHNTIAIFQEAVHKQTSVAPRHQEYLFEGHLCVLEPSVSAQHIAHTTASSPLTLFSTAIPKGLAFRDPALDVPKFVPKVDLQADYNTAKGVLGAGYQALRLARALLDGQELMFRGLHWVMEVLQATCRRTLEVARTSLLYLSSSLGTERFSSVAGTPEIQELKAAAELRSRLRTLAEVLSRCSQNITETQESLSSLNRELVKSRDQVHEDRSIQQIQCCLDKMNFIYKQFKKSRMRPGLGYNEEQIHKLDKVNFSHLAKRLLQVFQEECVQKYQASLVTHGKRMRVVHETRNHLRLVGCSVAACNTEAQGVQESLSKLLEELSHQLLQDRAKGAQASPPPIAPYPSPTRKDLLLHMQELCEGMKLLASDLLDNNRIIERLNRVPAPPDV

Rattus norvegicus = species: Rattus norvegicus; assay: Percentage AMPK activity remaining in the presence of 2uM inhibitor
[7] = biological target: Homeodomain-interacting protein kinase 2 (Homo sapiens) (UniProt Q9H2X6); assay: Percentage HIPK2 activity remaining in the presence of 2uM inhibitor; conditions: filed as antagonist
[8] = biological target: Mitogen-activated protein kinase 11 (Homo sapiens) (UniProt Q15759); assay: Percentage p38beta activity remaining in the presence of 2uM inhibitor
[9] = biological target: T1, Serine/threonine-protein kinase D1 (Homo sapiens); assay: Percentage PKD1 activity remaining in the presence of 2uM inhibitor
[10] = biological target: T2, Serine/threonine-protein kinase pim-1; assay: Percentage PIM1 activity remaining in the presence of 2uM inhibitor
[11] = biological target: Serine/threonine-protein kinase N2 (Homo sapiens) (UniProt Q16513); assay: Percentage PRK2 activity remaining in the presence of 2uM inhibitor
Serine/threonine-protein kinase N2 (Homo sapiens), sequence (Q16513 whole entry, looked up): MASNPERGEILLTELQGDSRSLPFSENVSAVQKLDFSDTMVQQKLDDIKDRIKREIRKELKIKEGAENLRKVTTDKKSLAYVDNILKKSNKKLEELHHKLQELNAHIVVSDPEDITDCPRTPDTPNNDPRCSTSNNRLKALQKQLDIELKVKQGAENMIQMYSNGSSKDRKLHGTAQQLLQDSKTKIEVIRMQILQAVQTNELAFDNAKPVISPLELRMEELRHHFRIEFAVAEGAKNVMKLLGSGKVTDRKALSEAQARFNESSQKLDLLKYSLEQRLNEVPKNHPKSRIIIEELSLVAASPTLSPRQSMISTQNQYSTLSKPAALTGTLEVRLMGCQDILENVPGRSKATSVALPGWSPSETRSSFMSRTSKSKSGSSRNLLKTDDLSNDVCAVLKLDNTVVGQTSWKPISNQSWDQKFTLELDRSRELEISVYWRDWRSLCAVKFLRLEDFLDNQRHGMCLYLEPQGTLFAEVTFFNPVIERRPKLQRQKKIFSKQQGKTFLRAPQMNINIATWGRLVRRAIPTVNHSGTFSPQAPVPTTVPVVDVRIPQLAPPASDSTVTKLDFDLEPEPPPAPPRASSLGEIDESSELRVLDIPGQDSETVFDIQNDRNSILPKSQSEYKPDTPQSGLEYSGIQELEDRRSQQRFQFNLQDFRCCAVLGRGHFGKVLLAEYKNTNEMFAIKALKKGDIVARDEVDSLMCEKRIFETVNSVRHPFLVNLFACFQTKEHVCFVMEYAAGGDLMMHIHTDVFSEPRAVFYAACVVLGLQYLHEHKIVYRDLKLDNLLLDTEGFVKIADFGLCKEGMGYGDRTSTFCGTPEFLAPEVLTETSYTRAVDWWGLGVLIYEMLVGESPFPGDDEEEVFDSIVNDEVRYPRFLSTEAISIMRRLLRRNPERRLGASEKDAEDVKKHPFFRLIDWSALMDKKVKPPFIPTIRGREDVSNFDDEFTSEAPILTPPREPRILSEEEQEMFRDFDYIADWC

T2 sequence (P11309 whole entry, looked up): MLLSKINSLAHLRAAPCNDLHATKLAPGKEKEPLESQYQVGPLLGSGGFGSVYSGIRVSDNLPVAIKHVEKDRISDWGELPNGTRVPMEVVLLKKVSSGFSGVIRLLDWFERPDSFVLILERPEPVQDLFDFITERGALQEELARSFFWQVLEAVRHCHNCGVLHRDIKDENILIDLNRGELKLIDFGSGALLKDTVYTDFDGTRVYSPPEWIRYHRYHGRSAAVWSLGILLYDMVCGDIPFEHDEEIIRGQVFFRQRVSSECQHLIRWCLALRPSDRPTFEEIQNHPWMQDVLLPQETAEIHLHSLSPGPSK
Glycogen synthase kinase-3 beta, sequence (P49841 whole entry, looked up): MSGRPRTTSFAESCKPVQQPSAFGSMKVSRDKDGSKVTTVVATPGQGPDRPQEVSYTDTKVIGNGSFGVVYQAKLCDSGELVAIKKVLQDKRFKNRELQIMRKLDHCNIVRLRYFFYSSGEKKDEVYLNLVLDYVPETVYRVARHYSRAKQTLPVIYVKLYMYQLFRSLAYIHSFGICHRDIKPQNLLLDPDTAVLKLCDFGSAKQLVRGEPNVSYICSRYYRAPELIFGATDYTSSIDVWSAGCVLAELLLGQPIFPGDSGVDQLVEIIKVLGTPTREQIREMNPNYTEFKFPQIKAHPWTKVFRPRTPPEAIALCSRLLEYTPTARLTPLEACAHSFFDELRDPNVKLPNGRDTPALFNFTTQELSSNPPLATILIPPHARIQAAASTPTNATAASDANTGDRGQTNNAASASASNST
Homeodomain-interacting protein kinase 2 (Homo sapiens), sequence (Q9H2X6 whole entry, looked up): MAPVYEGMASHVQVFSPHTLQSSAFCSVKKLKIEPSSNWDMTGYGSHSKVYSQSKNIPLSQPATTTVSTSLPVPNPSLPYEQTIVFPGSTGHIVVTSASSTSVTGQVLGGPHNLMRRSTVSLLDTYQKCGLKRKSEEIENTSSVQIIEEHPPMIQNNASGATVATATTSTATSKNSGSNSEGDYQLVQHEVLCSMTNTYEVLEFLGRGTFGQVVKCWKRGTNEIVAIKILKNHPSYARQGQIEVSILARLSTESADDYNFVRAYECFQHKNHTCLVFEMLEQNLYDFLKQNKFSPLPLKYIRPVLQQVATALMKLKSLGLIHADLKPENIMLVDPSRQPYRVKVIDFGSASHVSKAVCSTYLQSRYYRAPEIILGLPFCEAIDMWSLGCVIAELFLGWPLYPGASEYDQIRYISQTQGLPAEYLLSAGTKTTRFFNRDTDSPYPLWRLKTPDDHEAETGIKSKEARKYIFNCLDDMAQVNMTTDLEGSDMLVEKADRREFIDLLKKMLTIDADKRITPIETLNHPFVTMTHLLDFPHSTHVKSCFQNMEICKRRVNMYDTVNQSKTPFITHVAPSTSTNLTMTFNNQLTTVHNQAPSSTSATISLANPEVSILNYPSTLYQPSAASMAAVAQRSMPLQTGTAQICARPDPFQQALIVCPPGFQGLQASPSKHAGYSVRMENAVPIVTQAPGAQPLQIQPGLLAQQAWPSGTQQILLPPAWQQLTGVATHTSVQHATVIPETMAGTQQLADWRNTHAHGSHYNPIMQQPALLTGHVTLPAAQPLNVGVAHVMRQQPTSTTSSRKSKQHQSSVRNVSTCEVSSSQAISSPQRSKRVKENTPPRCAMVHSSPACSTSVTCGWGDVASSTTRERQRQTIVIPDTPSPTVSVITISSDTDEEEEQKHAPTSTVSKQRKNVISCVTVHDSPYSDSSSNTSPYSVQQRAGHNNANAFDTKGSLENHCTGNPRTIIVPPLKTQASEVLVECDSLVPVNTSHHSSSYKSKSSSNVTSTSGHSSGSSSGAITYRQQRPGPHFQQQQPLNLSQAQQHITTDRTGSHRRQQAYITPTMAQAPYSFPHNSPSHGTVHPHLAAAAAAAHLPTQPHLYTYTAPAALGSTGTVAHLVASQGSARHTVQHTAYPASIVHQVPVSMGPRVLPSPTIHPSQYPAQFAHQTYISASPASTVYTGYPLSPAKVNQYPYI
Mitogen-activated protein kinase 11 (Homo sapiens), sequence (Q15759 whole entry): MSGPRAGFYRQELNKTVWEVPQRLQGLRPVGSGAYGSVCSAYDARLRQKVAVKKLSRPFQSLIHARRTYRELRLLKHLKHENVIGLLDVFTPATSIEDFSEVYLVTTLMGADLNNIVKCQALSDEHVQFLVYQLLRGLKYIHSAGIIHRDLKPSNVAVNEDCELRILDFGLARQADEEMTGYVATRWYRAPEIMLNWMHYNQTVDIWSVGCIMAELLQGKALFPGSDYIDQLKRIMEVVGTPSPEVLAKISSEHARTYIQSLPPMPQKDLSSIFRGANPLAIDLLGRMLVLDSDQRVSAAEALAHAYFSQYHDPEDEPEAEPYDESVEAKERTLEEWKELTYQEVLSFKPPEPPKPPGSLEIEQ
Ribosomal protein S6 kinase alpha-5 (Homo sapiens), sequence (O75582 whole entry, looked up): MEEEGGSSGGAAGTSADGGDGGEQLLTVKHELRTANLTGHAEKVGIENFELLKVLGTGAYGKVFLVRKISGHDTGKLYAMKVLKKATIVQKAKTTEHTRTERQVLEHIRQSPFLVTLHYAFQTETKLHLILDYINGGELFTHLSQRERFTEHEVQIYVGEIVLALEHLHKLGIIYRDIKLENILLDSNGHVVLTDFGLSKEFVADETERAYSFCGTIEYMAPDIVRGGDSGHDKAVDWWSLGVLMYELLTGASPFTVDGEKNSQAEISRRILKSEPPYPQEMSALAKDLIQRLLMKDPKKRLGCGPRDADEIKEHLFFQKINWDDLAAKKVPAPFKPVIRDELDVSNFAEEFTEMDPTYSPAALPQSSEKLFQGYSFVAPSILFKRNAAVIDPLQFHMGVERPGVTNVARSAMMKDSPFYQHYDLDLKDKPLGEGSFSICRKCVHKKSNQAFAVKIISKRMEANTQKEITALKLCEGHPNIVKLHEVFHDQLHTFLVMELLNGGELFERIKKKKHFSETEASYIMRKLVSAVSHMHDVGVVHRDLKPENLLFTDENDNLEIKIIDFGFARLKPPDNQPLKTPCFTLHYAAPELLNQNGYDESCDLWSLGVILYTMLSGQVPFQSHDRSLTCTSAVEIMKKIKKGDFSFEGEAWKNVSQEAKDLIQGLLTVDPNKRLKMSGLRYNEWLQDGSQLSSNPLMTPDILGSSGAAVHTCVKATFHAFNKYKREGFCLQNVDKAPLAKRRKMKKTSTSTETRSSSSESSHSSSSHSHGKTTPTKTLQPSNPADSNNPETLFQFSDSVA

Cc1ccc(-c2c(C(=O)CF)n(CCCO)c3ncnc(N)c23)cc1
Activity [1]: 75% | Activity [2]: 83% | Activity [3]: 61% | Activity [4]: 97% | Activity [5]: 65%

O=C(NCCCNc1nc(Nc2cccc(NC(=O)N3CCCC3)c2)ncc1I)c1cccs1
Activity [6]: 0%

Cn1cc(C2=C(c3ccc(Cl)cc3Cl)C(=O)NC2=O)c2ccccc21
Activity (Rattus norvegicus): 67% | Activity [7]: 15% | Activity [8]: 85% | Activity [9]: 100% | Activity [10]: 56% | Activity [11]: 81%
